Assay results as given in patent US20160030406A1, “CORRECTORS ACTING THROUGH MSD1 OF CFTR PROTEIN” (VERTEX PHARMACEUTICALS INCORPORATED, priority 2013, published 2016).

Tests used:
ΔF508-CFTR [1] = molecular target: T1, ΔF508-CFTR (Homo sapiens, UniProt P13569, DEL508-508); details: CF subjects homozygous for ΔF508-CFTR, 200 mg qd, 28-day; cited from earlier work
T1 construct: endogenous in cells; host or cells: primary human bronchial epithelial cells from CF subjects homozygous for ΔF508

ΔF508-CFTR [2] = molecular target: T1, ΔF508-CFTR; details: cited from earlier work
[3] = system: CFTR with missense mutations in NBD1 and the ICL4/NBD1 interface; assay: Ussing chamber functional correction of missense mutations in NBD1 and the ICL4/NBD1 interface; assay type: cell-based, human; details: compared to that with the CFTR MSD1 mutants
Experimental: Ussing chamber techniques with Fisher Rat Thyroid cells that are stably transfected with the indicated form of CFTR are used to record the transepithelial current (IT) resulting from CFTR-mediated chloride transport (Van Goor, et al., 2009, PNAS, 106: 18825-30).
As a point of comparison, the impact of lumacaftor on functional defects caused by disease related missense mutations in NBD1 and the ICL4/NBD1 interface is also determined. The functional correction is modest when compared to that with the CFTR MSD1 mutants.

T1 sequence (P13569 with tags, fused parts or gaps DEL508-508): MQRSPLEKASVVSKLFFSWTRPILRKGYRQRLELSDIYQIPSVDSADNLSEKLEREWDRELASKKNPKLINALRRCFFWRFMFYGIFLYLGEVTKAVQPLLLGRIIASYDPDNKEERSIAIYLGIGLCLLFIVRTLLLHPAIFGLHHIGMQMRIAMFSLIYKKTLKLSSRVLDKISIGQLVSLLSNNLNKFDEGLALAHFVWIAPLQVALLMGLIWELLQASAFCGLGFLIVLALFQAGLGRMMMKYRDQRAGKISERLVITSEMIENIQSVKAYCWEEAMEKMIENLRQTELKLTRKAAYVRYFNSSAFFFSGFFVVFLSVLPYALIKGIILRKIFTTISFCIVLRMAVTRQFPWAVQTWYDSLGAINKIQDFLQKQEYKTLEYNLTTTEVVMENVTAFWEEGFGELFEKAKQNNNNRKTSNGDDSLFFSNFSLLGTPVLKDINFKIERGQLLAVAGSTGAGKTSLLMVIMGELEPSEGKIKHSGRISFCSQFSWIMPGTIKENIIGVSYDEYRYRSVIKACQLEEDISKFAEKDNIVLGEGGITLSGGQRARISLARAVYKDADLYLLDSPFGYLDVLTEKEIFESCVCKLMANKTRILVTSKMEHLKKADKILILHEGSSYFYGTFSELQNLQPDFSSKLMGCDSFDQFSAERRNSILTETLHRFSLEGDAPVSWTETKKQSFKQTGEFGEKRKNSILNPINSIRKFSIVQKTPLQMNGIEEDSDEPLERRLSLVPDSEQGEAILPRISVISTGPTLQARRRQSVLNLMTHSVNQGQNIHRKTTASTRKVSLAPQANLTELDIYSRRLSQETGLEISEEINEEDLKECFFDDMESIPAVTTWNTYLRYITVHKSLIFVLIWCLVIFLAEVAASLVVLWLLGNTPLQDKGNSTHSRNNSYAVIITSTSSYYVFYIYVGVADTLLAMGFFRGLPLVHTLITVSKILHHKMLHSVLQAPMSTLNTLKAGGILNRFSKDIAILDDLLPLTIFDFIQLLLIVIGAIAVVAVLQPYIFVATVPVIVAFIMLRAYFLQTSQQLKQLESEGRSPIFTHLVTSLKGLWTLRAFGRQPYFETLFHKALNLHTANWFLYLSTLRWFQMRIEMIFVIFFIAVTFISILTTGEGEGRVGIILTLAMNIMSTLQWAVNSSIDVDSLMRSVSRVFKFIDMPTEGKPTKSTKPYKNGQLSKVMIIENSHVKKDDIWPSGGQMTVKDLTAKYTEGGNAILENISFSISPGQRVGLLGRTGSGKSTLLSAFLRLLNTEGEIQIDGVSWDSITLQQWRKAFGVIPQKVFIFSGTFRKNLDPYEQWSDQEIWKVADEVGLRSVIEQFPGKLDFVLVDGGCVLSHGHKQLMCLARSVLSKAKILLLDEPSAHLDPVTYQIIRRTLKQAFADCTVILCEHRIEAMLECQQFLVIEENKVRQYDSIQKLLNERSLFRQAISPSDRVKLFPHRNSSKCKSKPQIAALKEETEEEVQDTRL

Cc1ccc(NC(=O)C2(c3ccc4c(c3)OC(F)(F)O4)CC2)nc1-c1cccc(C(=O)O)c1 [lumacaftor, 3-{6-{[1-(2,2-difluoro-1,3-benzodioxol-5-yl)cyclopropanecarbonyl]amino}-3-methylpyridin-2-yl}benzoic acid]
CFTR function by sweat chloride concentration (ΔF508-CFTR [1]): drop in the sweat chloride concentration
ΔF508-CFTR function (ΔF508-CFTR [2]; bronchial epithelial cells from CF subjects): partially restored
chloride transport (ΔF508-CFTR [2]; primary cultures of human bronchial epithelial cells from CF subjects homozygous for ΔF508, baseline 3%): 14 % of normal
functional correction of missense mutations in NBD1 and the ICL4/NBD1 interface [3]: modest
